{"source": "patent US9314498B2", "about": "“Bacteriocin derived from Lactobacillus rhamnosus” (priority 2011, dated 2016)", "key": {"[1]": {"experiment": "Measurement of the isoelectric point of the synthesized peptides", "type": "physicochemical", "details": "synthesized peptide", "excerpt": "Among antimicrobial peptides, hBD2 (human P-defensin-2 (see Eur J., 2002, Oral Sci. (109), 121-124)) is well known as a basic antimicrobial peptide, and has an isoelectric point of about 10. However, the isoelectric points of Kog1 and Kog2 of the embodiment 2 were higher than the isoelectric point of hBD2, and more similar to the isoelectric points of antimicrobial peptides derived from mammals. Thus, Kog1 and Kog2 were confirmed to have less cytotoxicity."}, "[2]": {"tested_on": "Streptococcus mutans NCTC10449 strain", "experiment": "Antimicrobial activity against Streptococcus mutans NCTC10449", "type": "cell-based", "details": "0 to 100 μM, FIG. 4"}, "[3]": {"tested_on": "Streptococcus mutans Ingbritt strain", "experiment": "Antimicrobial activity against Streptococcus mutans Ingbritt", "type": "cell-based", "details": "0 to 100 μM, FIG. 5"}, "[4]": {"tested_on": "Porphyromonas gingivalis Hudoi001 strain", "experiment": "Antimicrobial activity against Porphyromonas gingivalis Hudoi001", "type": "cell-based", "details": "not shown in the figures", "experimental": "The Candida albicans GDH18 strain was precultured using SD medium (Difco) at 37° C. for 24 hours under aerobic conditions. The Streptococcus sobrinus B-13 strain, Streptococcus mutans NCTC10449 strain and Streptococcus mutans Ingbritt strain were precultured using TSB medium (Difco) supplemented with 5% yeast extract (Difco) at 37° C. for 24 hours under aerobic conditions. The Porphyromonas gingivalis Hudoi001 strain and Aggregatibacter actinomycetemcomitans Hudoe001 strain were precultured using BHI medium (Difco) supplemented with hemin (5 mg/L) and vitamin K3 (1 mg/L) at 37° C. for 96 hours under anaerobic conditions with Anaero Pack System (Mitsubishi Gas Chemical Company, Inc.).\nAfter the culture, the cells of the Candida, cariogenic bacteria and periodontal disease bacteria were collected by centrifugation at 1000×g, and washed twice with 1 mM phosphate buffer (pH 6.8). The cells were then suspended such that the final concentration was 1×10^8 cfu/ml or 1×10^7 cells/m. For suspension of the Streptococcus strains, ultrasonic treatment was also carried out.\nThat is, it is assumed that, in Examples described in Patent Literature 1, the Lactobacillus rhamnosus KO3 strain expressed Kog1 and Kog2, and the expressed Kog1 and Kog2 exerted antimicrobial activity against the Porphyromonas gingivalis Hudoi001 strain. […]"}, "[5]": {"tested_on": "Aggregatibacter actinomycetemcomitans Hudoe001 strain", "experiment": "Antimicrobial activity against Aggregatibacter actinomycetemcomitans Hudoe001", "type": "cell-based", "details": "tested 0 to 50 μM"}, "MC3T3-E1 cells": {"tested_on": "MC3T3-E1 cells", "experiment": "Differentiation into osteoblasts: Type-I collagen expression by real-time quantitative RT-PCR", "type": "cell-based, mouse", "experimental": "MC3T3-E1 cells, which are mouse-derived osteoblast-like cells, were used. The MC3T3-E1 cells were cultured in α-modified Eagle's Medium (α-MEM) supplemented with 10% FBS (Biological industries, Haemek, Israel), L-glutamine, antibiotic mixture (Invitrogen), 50 μg/ml ascorbic acid (Sigma), and 0 nM, 250 nM, 500 nM or 1000 nM Kog2, at 37° C. under 5% CO2 on plastic or titanium. From the thus cultured MC3T3-E1 cells, total RNA was extracted using TRIzol reagent (Invitrogen), and cDNA was then prepared using ReverTra Ace reverse transcriptase (Toyobo Co., Ltd.). Subsequently, the prepared cDNA was used for analyzing expression of Type-I collagen, which is a differentiation marker for osteoblasts, and of β-actin, which is an endogenous control, by real-time quantitative RT-PCR. In the real-time quantitative RT-PCR, Type-I collagen was analyzed using the forward primer shown in SEQ ID NO: 8, the reverse primer shown in SEQ ID NO: 9 and the probe shown in SEQ ID NO: 10. β-actin was analyzed using the forward primer shown in SEQ ID NO: 11, the reverse primer shown in SEQ ID NO: 12, and the probe shown in SEQ ID NO: 13."}, "[6]": {"tested_on": "Candida albicans MYA274 strain", "experiment": "Boiling experiment: antimicrobial activity (ATP) against Candida albicans MYA274", "type": "cell-based", "details": "concluded from supernatant boiled at 100° C. for 20 minutes; peptides not directly used", "experimental": "In Example 9, antimicrobial activity against the Candida albicans MYA274 strain was investigated. The Candida albicans MYA274 strain was precultured in Sabouraud dextrose broth (Difco) at 37° C. for 24 hours, and then washed twice with MQ water, followed by being prepared such that OD600 is 0.3 (1.0×10^7 cells/ml).\nIn Example 9, the bacteriocin Kog1 or Kog2, or the Lactobacillus rhamnosus KO1 strain or KO3 strain, was not directly used. Instead, a lactic acid bacterium medium containing the Lactobacillus rhamnosus KO3 strain, 8020 yogurt (liquid type), was used in the experiment More specifically, the 8020 yogurt (liquid type) was prepared by adding the Lactobacillus rhamnosus KO3 strain at a concentration of 1% and YF-L811 starter at a concentration of 1% to the 15% skim milk+3% glucose medium, and then performing culture at 35° C. for 2 days.\nSuch 8020 yogurt (liquid type) was centrifuged to obtain a supernatant from which the lactic acid bacterium was removed (hereinafter referred to as Supernatant B). In the experiment, Supernatant B and a sample prepared by boiling Supernatant B at 100° C. for 20 minutes (hereinafter referred to as Supernatant Boil) were used. […]\nIn order to study changes in the antimicrobial activity by boiling, the following 3 kinds of samples were placed in a 24-well plate, and the value of ATP (pmol/L) after 24 hours of incubation at 37° C. was measured. […]"}}}
{"substance": "Kog2: peptide having the amino acid sequence shown in SEQ ID NO: 2, bacteriocin of Lactobacillus rhamnosus, synthesized by the tea-bag method (MTKVRSSRLRPLTLRLLSAPARAQFLTIACRAILRYDLINS; listed as Lactobacillus rhamnosus)", "values": [{"measurement": "isoelectric point (pl)", "setting": "[1]", "value": 12.38}, {"measurement": "antimicrobial activity compared to the other antimicrobial peptides (hBD2, lysozyme)", "setting": "[2]", "value": "capable of killing a larger amount of Streptococcus mutans even at relatively low peptide concentration"}, {"measurement": "antimicrobial activity compared to the other antimicrobial peptides (hBD2, lysozyme)", "setting": "[3]", "value": "capable of killing a larger amount of Streptococcus mutans even at relatively low peptide concentration"}, {"measurement": "antimicrobial activity", "setting": "[4]", "value": "capable of exerting antimicrobial activity"}, {"measurement": "peptide concentration at which 100% of the strain was killed", "setting": "[5]", "value": 1.56, "unit": "µM"}, {"measurement": "value of Type I collagen/β-actin versus no Kog2 added", "setting": "MC3T3-E1 cells; Kog2 at 250 nM vs ctrl", "value": 3, "unit": "times"}, {"measurement": "concentration that best promotes differentiation into osteoblasts", "setting": "MC3T3-E1 cells; tested 0, 250, 500, 1000 nM", "value": "about 250 nM"}, {"measurement": "heat resistance (antimicrobial activity after heating)", "setting": "[6]", "value": "still maintain antimicrobial activity after heating"}]}
